From patent US20250353891A1 (MEDIMMUNE LIMITED, priority 2022, published 2025)
pEC50: −log10 of the molar value. Starred links: 1 amine or outer side, 2 acyl side, 3 side chain; linkers in the order of their positions; H or OH if unused. Non-standard residues stand in square brackets, D forms with d. Residues, ends and D or L forms follow the SMILES beside them. Groups on a side chain read outwards from the residue. *: point of attachment. C20 diacid = O=C(O)CCCCCCCCCCCCCCCCCCC(=O)*; C18 diacid = O=C(O)CCCCCCCCCCCCCCCCC(=O)*; γGlu = O=C(O)[C@H](CCC(=O)[*:2])N[*:1]; αMeF = C[C@](N)(Cc1ccccc1)C(=O)O; AEEA = NCCOCCOCC(=O)O; Aib = CC(C)(N)C(=O)O

Tests used:
[1] = biological target: human glucagon receptor (hGCGR) (Homo sapiens, UniProt P47871); assay: cAMP production (HTRF) in CHO cells expressing hGCGR; assay type: cell-based; set-up: expressed in transfected cells; conditions: Table 6, peptides modified at position 17; cAMP in CHO hGCGR cells; geometric mean; read-out: hGluc-R EC50
Protocol: Cells were re-suspended in assay buffer at a batch-dependent optimized concentration (typically hGLP-1R cells at 1×10^5 cells/mL, hGCGR cells at 2×10^5 cells/mL).
Cells were added to the assay plate using a multidrop dispenser and incubated at room temperature for 30 minutes before measuring the cAMP level using a cAMP dynamic 2 homogeneous time resolved Fluorescence (HTRF) kit (Cisbio Bioassays #62AM4PEJ) following the two-step protocol as per manufacturer's recommendations. In brief, anti-cAMP cryptate (donor fluorophore) and cAMP-d2 (acceptor fluorophore) were made up separately by diluting each 1 in 20 in conjugate and lysis buffer provided in the kit. Anti-CAMP cryptate was added to all wells of the assay plate, followed by cAMP-d2 added to all wells except non-specific binding (NSB) wells (to which conjugate and lysis buffer was added).
Data was transformed to % Delta F as described in the manufacturer's guidelines and analyzed by 4-parameter logistic fit to determine EC50 values.

[2] = biological target: human GLP-1 receptor (hGLP-1R) (Homo sapiens, UniProt P43220); assay: cAMP production (HTRF) in CHO cells expressing hGLP-1R; assay type: cell-based; set-up: expressed in transfected cells; conditions: for pEC50: Table 6, peptides modified at position 17, cAMP in CHO hGLP-1R cells, geometric mean, read-out: hGLP-1R EC50; for % Relative Potency Ratio: Table 6, % GLP-1R activity relative to GLP-1 / % GlucR activity relative to glucagon
Method in brief: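 Read-out: HTRF cAMP (anti-cAMP cryptate donor, cAMP-d2 acceptor in conjugate/lysis buffer), converted to % Delta F and fitted by 4-parameter logistic for EC50. Cell densities were 1×10^5 cells/mL (hGLP-1R) or 2×10^5 cells/mL (hGCGR). Stimulation lasted 30 min at room temperature.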

human GLP-1 receptor (hGLP-1R), sequence (P43220 24-463): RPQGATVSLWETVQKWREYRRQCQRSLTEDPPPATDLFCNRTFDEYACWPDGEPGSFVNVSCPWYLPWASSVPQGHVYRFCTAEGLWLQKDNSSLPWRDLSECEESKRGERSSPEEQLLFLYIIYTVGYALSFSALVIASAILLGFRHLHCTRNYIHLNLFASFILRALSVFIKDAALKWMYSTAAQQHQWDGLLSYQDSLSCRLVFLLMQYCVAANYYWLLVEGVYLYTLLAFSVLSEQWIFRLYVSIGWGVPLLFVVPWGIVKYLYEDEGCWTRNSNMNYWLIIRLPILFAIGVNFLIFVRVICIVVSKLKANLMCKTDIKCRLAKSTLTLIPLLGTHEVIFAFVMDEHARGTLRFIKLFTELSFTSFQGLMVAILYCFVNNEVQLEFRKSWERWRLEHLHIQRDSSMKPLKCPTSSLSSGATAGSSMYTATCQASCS
human glucagon receptor (hGCGR), sequence (P47871 26-477): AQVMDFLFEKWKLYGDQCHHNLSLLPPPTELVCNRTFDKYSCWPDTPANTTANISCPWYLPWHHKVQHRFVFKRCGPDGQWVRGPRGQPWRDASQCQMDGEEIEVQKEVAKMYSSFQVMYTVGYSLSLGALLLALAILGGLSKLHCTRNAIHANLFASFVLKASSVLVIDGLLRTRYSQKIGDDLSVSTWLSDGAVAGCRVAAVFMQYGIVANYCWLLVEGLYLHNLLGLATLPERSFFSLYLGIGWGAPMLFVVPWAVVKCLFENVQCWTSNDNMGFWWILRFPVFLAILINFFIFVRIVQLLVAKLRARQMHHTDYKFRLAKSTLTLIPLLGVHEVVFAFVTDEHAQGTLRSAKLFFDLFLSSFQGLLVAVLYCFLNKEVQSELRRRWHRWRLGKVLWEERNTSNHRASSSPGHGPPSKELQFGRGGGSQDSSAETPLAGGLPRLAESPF

| SMILES | pEC50 [1] | pEC50 [2] | % Relative Potency Ratio [2] |
| --- | --- | --- | --- |
| CC[C@H](C)[C@H](NC(=O)[C@H](CO)NC(=O)[C@H](CCC(=O)O)NC(=O)[C@@H](NC(=O)[C@](C)(Cc1ccccc1)NC(=O)[C@H](CC(=O)O)NC(=O)[C@H](CCCNC(=N)N)NC(=O)[C@H](C)NC(=O)[C@H](C)NC(=O)[C@H](CCCCNC(=O)COCCOCCNC(=O)COCCOCCNC(=O)CC[C@H](NC(=O)CCCCCCCCCCCCCCCCC(=O)O)C(=O)O)NC(=O)[C@H](CO)NC(=O)[C@H](CC(=O)O)NC(=O)[C@H](CC(C)C)NC(=O)[C@](C)(Cc1ccccc1)NC(=O)[C@H](CCCCN)NC(=O)[C@H](CO)NC(=O)[C@@H](NC(=O)[C@H](CC(=O)O)NC(=O)[C@H](CO)NC(=O)[C@@H](NC(=O)[C@](C)(Cc1ccccc1)NC(=O)[C@H](CO)NC(=O)CNC(=O)[C@H](Cc1c[nH]cn1)NC(=O)C(C)(C)NC(=O)[C@@H](N)Cc1c[nH]cn1)[C@@H](C)O)C(C)C)C(C)C)C(=O)N[C@@H](C)C(=O)N[C@@H](CC(N)=O)C(=O)N[C@H](C(N)=O)[C@@H](C)O [Peptide 17] (H-H[Aib]HGS[αMeF]TSDVSK[αMeF]LDSK([AEEA-AEEA-γGlu-C18 diacid])AARD[αMeF]VESIANT-NH2; N-terminus assumed) | 9.87 | 10.35 | 5.9 |
| CC[C@H](C)[C@H](NC(=O)[C@H](CO)NC(=O)[C@H](CCC(N)=O)NC(=O)[C@@H](NC(=O)[C@](C)(Cc1ccccc1)NC(=O)[C@H](CC(=O)O)NC(=O)[C@H](CCCNC(=N)N)NC(=O)[C@H](C)NC(=O)[C@H](C)NC(=O)[C@H](CCCCNC(=O)COCCOCCNC(=O)COCCOCCNC(=O)CC[C@H](NC(=O)CCCCCCCCCCCCCCCCC(=O)O)C(=O)O)NC(=O)[C@H](CO)NC(=O)[C@H](CC(=O)O)NC(=O)[C@H](CC(C)C)NC(=O)[C@](C)(Cc1ccccc1)NC(=O)[C@H](CCCCN)NC(=O)[C@H](CO)NC(=O)[C@@H](NC(=O)[C@H](CC(=O)O)NC(=O)[C@H](CO)NC(=O)[C@@H](NC(=O)[C@](C)(Cc1ccccc1)NC(=O)[C@H](CO)NC(=O)CNC(=O)[C@H](Cc1c[nH]cn1)NC(=O)C(C)(C)NC(=O)[C@@H](N)Cc1c[nH]cn1)[C@@H](C)O)C(C)C)C(C)C)C(=O)N[C@@H](C)C(=O)N[C@@H](CC(N)=O)C(=O)N[C@H](C(N)=O)[C@@H](C)O [Peptide 18] (H-H[Aib]HGS[αMeF]TSDVSK[αMeF]LDSK([AEEA-AEEA-γGlu-C18 diacid])AARD[αMeF]VQSIANT-NH2; N-terminus assumed) | 9.92 | 10.69 | 11.7 |
| CC[C@H](C)[C@H](NC(=O)C(C)(C)NC(=O)[C@H](CCC(N)=O)NC(=O)[C@@H](NC(=O)[C@](C)(Cc1ccccc1)NC(=O)[C@H](CC(=O)O)NC(=O)[C@H](CCCNC(=N)N)NC(=O)[C@H](C)NC(=O)[C@H](C)NC(=O)[C@H](CCCCNC(=O)COCCOCCNC(=O)COCCOCCNC(=O)CC[C@H](NC(=O)CC[C@H](NC(=O)CCCCCCCCCCCCCCCCC(=O)O)C(=O)O)C(=O)O)NC(=O)[C@H](CO)NC(=O)[C@H](CC(=O)O)NC(=O)[C@H](CC(C)C)NC(=O)[C@](C)(Cc1ccccc1)NC(=O)[C@H](CCCCN)NC(=O)[C@H](CO)NC(=O)[C@@H](NC(=O)[C@H](CC(=O)O)NC(=O)[C@H](CO)NC(=O)[C@@H](NC(=O)[C@](C)(Cc1ccccc1)NC(=O)[C@H](CO)NC(=O)CNC(=O)[C@H](Cc1c[nH]cn1)NC(=O)C(C)(C)NC(=O)[C@@H](N)Cc1c[nH]cn1)[C@@H](C)O)C(C)C)C(C)C)C(=O)N[C@@H](C)C(=O)N[C@@H](CC(N)=O)C(=O)N[C@H](C(N)=O)[C@@H](C)O [Peptide 19] (H-H[Aib]HGS[αMeF]TSDVSK[αMeF]LDSK([AEEA-AEEA-γGlu-γGlu-C18 diacid])AARD[αMeF]VQ[Aib]IANT-NH2; N-terminus assumed) | 9.87 | 10.42 | 6.9 |
| CC[C@H](C)[C@H](NC(=O)C(C)(C)NC(=O)[C@H](CCC(=O)O)NC(=O)[C@@H](NC(=O)[C@](C)(Cc1ccccc1)NC(=O)[C@H](CC(=O)O)NC(=O)[C@H](CCCNC(=N)N)NC(=O)[C@H](C)NC(=O)[C@H](C)NC(=O)[C@H](CCCCNC(=O)COCCOCCNC(=O)COCCOCCNC(=O)CC[C@H](NC(=O)CC[C@H](NC(=O)CCCCCCCCCCCCCCCCC(=O)O)C(=O)O)C(=O)O)NC(=O)[C@H](CO)NC(=O)[C@H](CC(=O)O)NC(=O)[C@H](CC(C)C)NC(=O)[C@](C)(Cc1ccccc1)NC(=O)[C@H](CCCCN)NC(=O)[C@H](CO)NC(=O)[C@@H](NC(=O)[C@H](CC(=O)O)NC(=O)[C@H](CO)NC(=O)[C@@H](NC(=O)[C@](C)(Cc1ccccc1)NC(=O)[C@H](CO)NC(=O)CNC(=O)[C@H](Cc1c[nH]cn1)NC(=O)C(C)(C)NC(=O)[C@@H](N)Cc1c[nH]cn1)[C@@H](C)O)C(C)C)C(C)C)C(=O)N[C@@H](C)C(=O)N[C@@H](CC(N)=O)C(=O)N[C@H](C(N)=O)[C@@H](C)O [Peptide 20] (H-H[Aib]HGS[αMeF]TSDVSK[αMeF]LDSK([AEEA-AEEA-γGlu-γGlu-C18 diacid])AARD[αMeF]VE[Aib]IANT-NH2; N-terminus assumed) | 9.87 | 9.82 | 1.8 |
| CC[C@H](C)[C@H](NC(=O)[C@H](CO)NC(=O)[C@H](CCC(=O)O)NC(=O)[C@@H](NC(=O)[C@](C)(Cc1ccccc1)NC(=O)[C@H](CC(=O)O)NC(=O)[C@H](CCC(N)=O)NC(=O)[C@H](C)NC(=O)[C@H](C)NC(=O)[C@H](CCCCNC(=O)CC[C@H](NC(=O)CCCCCCCCCCCCCCCCC(=O)O)C(=O)O)NC(=O)[C@H](CO)NC(=O)[C@H](CC(=O)O)NC(=O)[C@H](CC(C)C)NC(=O)[C@](C)(Cc1ccccc1)NC(=O)[C@H](CCCCN)NC(=O)[C@H](CO)NC(=O)[C@@H](NC(=O)[C@H](CC(=O)O)NC(=O)[C@H](CO)NC(=O)[C@@H](NC(=O)[C@](C)(Cc1ccccc1)NC(=O)[C@H](CO)NC(=O)CNC(=O)[C@H](Cc1c[nH]cn1)NC(=O)C(C)(C)NC(=O)[C@@H](N)Cc1c[nH]cn1)[C@@H](C)O)C(C)C)C(C)C)C(=O)N[C@@H](C)C(=O)N[C@@H](CC(N)=O)C(=O)N[C@H](C(N)=O)[C@@H](C)O [Peptide 21] (H-H[Aib]HGS[αMeF]TSDVSK[αMeF]LDSK([γGlu-C18 diacid])AAQD[αMeF]VESIANT-NH2; N-terminus assumed) | 10.16 | 9.42 | 0.4 |
| CC[C@H](C)[C@H](NC(=O)[C@H](CO)NC(=O)[C@H](CCC(=O)O)NC(=O)[C@@H](NC(=O)[C@](C)(Cc1ccccc1)NC(=O)[C@H](CC(=O)O)NC(=O)[C@H](CCC(N)=O)NC(=O)[C@H](C)NC(=O)[C@H](C)NC(=O)[C@H](CCCCNC(=O)COCCOCCNC(=O)COCCOCCNC(=O)CC[C@H](NC(=O)CC[C@H](NC(=O)CCCCCCCCCCCCCCCCCCC(=O)O)C(=O)O)C(=O)O)NC(=O)[C@H](CO)NC(=O)[C@H](CC(=O)O)NC(=O)[C@H](CC(C)C)NC(=O)[C@](C)(Cc1ccccc1)NC(=O)[C@H](CCCCN)NC(=O)[C@H](CO)NC(=O)[C@@H](NC(=O)[C@H](CC(=O)O)NC(=O)[C@H](CO)NC(=O)[C@@H](NC(=O)[C@](C)(Cc1ccccc1)NC(=O)[C@H](CO)NC(=O)CNC(=O)[C@H](Cc1c[nH]cn1)NC(=O)C(C)(C)NC(=O)[C@@H](N)Cc1c[nH]cn1)[C@@H](C)O)C(C)C)C(C)C)C(=O)N[C@@H](C)C(=O)N[C@@H](CC(N)=O)C(=O)N[C@H](C(N)=O)[C@@H](C)O [Peptide 22] (H-H[Aib]HGS[αMeF]TSDVSK[αMeF]LDSK([AEEA-AEEA-γGlu-γGlu-C20 diacid])AAQD[αMeF]VESIANT-NH2; N-terminus assumed) | 8.56 | 8.91 | 4.4 |
| CC[C@H](C)[C@H](NC(=O)[C@H](CO)NC(=O)[C@H](CCC(=O)O)NC(=O)[C@@H](NC(=O)[C@](C)(Cc1ccccc1)NC(=O)[C@H](CC(=O)O)NC(=O)[C@H](CCC(N)=O)NC(=O)[C@H](C)NC(=O)[C@H](C)NC(=O)[C@H](CCCCNC(=O)COCCOCCNC(=O)COCCOCCNC(=O)CC[C@H](NC(=O)CCCCCCCCCCCCCCCCC(=O)O)C(=O)O)NC(=O)[C@H](CO)NC(=O)[C@H](CC(=O)O)NC(=O)[C@H](CC(C)C)NC(=O)[C@](C)(Cc1ccccc1)NC(=O)[C@H](CCCCN)NC(=O)[C@H](CO)NC(=O)[C@@H](NC(=O)[C@H](CC(=O)O)NC(=O)[C@H](CO)NC(=O)[C@@H](NC(=O)[C@](C)(Cc1ccccc1)NC(=O)[C@H](CO)NC(=O)CNC(=O)[C@H](Cc1c[nH]cn1)NC(=O)C(C)(C)NC(=O)[C@@H](N)Cc1c[nH]cn1)[C@@H](C)O)C(C)C)C(C)C)C(=O)N[C@@H](C)C(=O)N[C@@H](CC(N)=O)C(=O)N[C@H](C(N)=O)[C@@H](C)O [Peptide 23] (H-H[Aib]HGS[αMeF]TSDVSK[αMeF]LDSK([AEEA-AEEA-γGlu-C18 diacid])AAQD[αMeF]VESIANT-NH2; N-terminus assumed) | 9.49 | 9.57 | 2.4 |
